In patent publication US20240124431A1, “2,3-DIHYDRO-4H-BENZO[B][1,4]OXAZIN-4-YL)(5-(PHENYL)-PYRIDIN-3-YL)METHANONE DERIVATIVES AND SIMILAR COMPOUNDS AS CYP11A1 INHIBITORS FOR THE TREATMENT OF PROSTATE CANCER” (ORION CORPORATION, priority 2020, published 2024):

Target: T1, CYP11A1 (Homo sapiens, UniProt P05108)
T1 construct: endogenous in cells; host or cells: NCI-H295R
T1 sequence (P05108 40-521): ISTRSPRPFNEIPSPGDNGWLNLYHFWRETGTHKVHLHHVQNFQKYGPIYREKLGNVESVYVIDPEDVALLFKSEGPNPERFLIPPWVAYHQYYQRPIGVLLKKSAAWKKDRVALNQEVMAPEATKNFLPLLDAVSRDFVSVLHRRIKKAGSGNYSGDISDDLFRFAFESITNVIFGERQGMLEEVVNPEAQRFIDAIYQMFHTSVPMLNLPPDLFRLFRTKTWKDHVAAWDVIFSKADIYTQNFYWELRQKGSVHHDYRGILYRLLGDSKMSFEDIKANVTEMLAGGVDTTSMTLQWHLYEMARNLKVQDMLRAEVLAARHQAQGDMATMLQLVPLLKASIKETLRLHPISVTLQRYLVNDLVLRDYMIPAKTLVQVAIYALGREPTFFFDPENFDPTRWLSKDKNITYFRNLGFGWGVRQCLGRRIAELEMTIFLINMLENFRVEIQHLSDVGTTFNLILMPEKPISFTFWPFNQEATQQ
Test: CYP11A1 inhibition: pregnenolone biosynthesis measured by ELISA in NCI-H295R cells
Format: cell-based
Conditions: NCI-H295R cells treated for 24 hours, 10 concentrations in duplicates, read-out: IC50 on CYP11A1 inhibition (Group)

- IC50: 51 to 200 nM
Structure (SMILES): O=C(c1cncc(-c2ccc(CO)cc2)c1)N1CCCc2ccccc21 [Compound 54, (3,4-Dihydroquinolin-1(2H)-yl)(5-(4-(hydroxymethyl)phenyl)pyridin-3-yl)-methanone]
